The source of these data is US7754709B2 (Solvay Pharmaceuticals BV, priority 2003, dated 2010).

Type in all cases: cell-based
In assay [1] the target is T1, 17β-hydroxysteroid dehydrogenase type 1 (Homo sapiens, UniProt P14061).
T1 construct: expressed in transfected cells; host or cells: MCF-7
T1 sequence (P14061 1-328): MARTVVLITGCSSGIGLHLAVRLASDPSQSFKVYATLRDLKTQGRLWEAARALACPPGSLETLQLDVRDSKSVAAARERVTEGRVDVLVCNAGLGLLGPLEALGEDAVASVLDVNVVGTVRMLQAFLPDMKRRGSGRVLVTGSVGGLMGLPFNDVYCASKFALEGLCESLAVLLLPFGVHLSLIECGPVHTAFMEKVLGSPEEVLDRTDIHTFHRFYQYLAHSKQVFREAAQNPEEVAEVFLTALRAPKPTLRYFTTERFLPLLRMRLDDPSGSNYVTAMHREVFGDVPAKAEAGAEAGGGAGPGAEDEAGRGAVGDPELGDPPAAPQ
Description: Inhibition of 17β-HSD type 1 in MCF-7 cells stably expressing the isoenzyme (HPLC, tritium labeled estrone). Particulars: 2 nM estrone, read-out: % Inhibition of the 17β-HSD enzyme type 1 (HSD1); for inhibition at 1 µM: MCF7, 1 μM compound; for inhibition at 10 µM: MCF7, 10 μM compound. From the text:
(§1) Biological Testing Materials and Methods 1. Inhibition of the 17β-hydroxysteroid dehydrogenase type 1, type 2 and type 3 enzyme
(§2) The compounds were screened in respect of 17β-HSD enzyme activity in vitro on established M CF-7 cell lines, each stably expressing one of the respective 17β-HSD isoenzymes. The interconversion of substrate by each isoenzyme and the 17β-HSD inhibiting activity of chemical compounds in these cell lines were detected by HPLC system.
(§3) Varying amounts of the test compounds were incubated in the growth medium of the 17β-HSD expressing cells together tritium labeled substrate (2 nM estrone for 17β-HSD type 1; 2 nM estradiol for 17β-HSD type 2; and 2 nM androstenedione for 17β-HSD type 3). The medium samples were removed after exact incubation time and the reaction is stopped by trichloroacetic acid (TCA). The samples were analyzed by HPLC-coupled flow scintillation analysis.
(§4) For each enzyme type, the HSD-inhibiting activity of an individual test compound was calculated by comparing the conversion of a control sample without any test compound (referred to as “Negative Control”) to the (reduced) conversion of the test sample containing the particular compound to be tested (referred to as “Test Sample”).
(§5) Two concentrations of each compound were used. The number of the compound refers to the numbers indicated in the Experimental Section.

For assay [2], the target named is T2, 17β-hydroxysteroid dehydrogenase type 2 (Homo sapiens, UniProt P37059).
T2 construct: expressed in transfected cells; host or cells: MCF-7
T2 sequence (P37059 1-387): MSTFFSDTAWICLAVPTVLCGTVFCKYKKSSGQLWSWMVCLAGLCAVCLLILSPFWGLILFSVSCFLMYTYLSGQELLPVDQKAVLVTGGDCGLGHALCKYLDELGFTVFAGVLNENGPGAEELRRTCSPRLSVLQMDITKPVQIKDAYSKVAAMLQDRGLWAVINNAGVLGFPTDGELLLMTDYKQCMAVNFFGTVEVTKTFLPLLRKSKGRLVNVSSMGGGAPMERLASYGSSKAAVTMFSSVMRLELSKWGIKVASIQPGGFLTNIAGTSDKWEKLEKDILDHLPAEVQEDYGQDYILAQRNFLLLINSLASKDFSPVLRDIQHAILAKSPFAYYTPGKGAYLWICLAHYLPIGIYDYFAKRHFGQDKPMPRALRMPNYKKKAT
The experiment in a line: Inhibition of 17β-HSD type 2 in MCF-7 cells stably expressing the isoenzyme (HPLC, tritium labeled estradiol). Particulars: 2 nM estradiol, read-out: % Inhibition of the 17β-HSD enzyme type 2 (HSD2); for inhibition at 1 µM: MCF7, 1 μM compound; for inhibition at 10 µM: MCF7, 10 μM compound.
Text: as §1, §2, §3, §4, §5

Assay [3] addresses T3, 17β-hydroxysteroid dehydrogenase type 3 (Homo sapiens, UniProt P37058).
T3 construct: expressed in transfected cells; host or cells: MCF-7
T3 sequence (P37058 1-310): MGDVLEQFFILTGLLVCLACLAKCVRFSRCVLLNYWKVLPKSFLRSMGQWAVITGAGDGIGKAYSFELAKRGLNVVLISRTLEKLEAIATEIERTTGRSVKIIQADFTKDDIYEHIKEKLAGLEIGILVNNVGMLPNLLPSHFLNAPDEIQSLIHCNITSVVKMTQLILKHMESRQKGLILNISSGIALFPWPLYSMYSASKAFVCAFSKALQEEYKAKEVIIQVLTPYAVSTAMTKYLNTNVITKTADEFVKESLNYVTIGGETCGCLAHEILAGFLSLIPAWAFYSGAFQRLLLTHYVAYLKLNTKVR
Description: Inhibition of 17β-HSD type 3 in MCF-7 cells stably expressing the isoenzyme (HPLC, tritium labeled androstenedione). The following applies: 2 nM androstenedione, read-out: % Inhibition of the 17β-HSD enzyme type 3 (HSD3); for inhibition at 1 µM: MCF7, 1 μM compound; for inhibition at 10 µM: MCF7, 10 μM compound.
Text: as §1, §2, §3, §4, §5

As usually defined, the inhibition is the relative decrease from the control value, in per cent.

In the case of `CCSC1=C(C=O)CCc2c1sc1nc3n(c(=O)c21)CCCCC3` [Compound 5b, 1,2,7,8,9,10,11,13-Octahydro-13-oxo-4-(ethylthio)[1]benzothieno[2′,3′:4,5]-pyrimido-[1,2-a]azepine-3-carboxaldehyde], the inhibition at 1 µM in assay [1] turned out to be 66.1%; in assay [2], 19.7%; in assay [3], 43.4%. Also, the inhibition at 10 µM came to 100% in assay [1], 25.2% in assay [2] and 100% in assay [3].

For `CCCSC1=C(C=O)CCc2c1sc1nc3n(c(=O)c21)CCCCCC3` [Compound 5i, 1,2,7,9,10,11,12,14-octahydro-14-oxo-4-(propylthio)-8H-[1]benzothieno[2′,3′:4,5]pyrimido-[1,2-a]-azocine-3-carbaldehyde], the inhibition at 1 µM in assay [1] came out at 43.9%; in assay [2], 11.6%; in assay [3] it was 22.5%. Besides, the inhibition at 10 µM in assay [1] was found to be 100%; in assay [2], 17.3%; in assay [3] it was 80.5%.

On to `CCCSC1=C(C=O)CCc2c1sc1nc3n(c(=O)c21)CCC(C(=O)OC)CC3` (stereo not drawn) [Compound 23, 3-Formyl-1,2,7,8,9,10,11,13-octahydro-13-oxo-4-(propylthio)-[l]benzothieno[2′,3′: 4,5] pyrimido[1,2-a]azepine-9-carboxylic acid methyl ester], for which the inhibition at 1 µM in assay [1] was determined as 17.4%; in assay [2] it was 9.7%; in assay [3], 19.5%. The figures for the inhibition at 10 µM in assay [1], in assay [2] and in assay [3] were 64.7%, 17.7% and 89.5%, respectively.

As to `CCOC(=O)C1CCCn2c1nc1sc3c(c1c2=O)CCCC3` (stereo not drawn) [Compound 15, 1,2,3,4,7,9,10,12-Octahydro-12-oxo-8H-[1]benzothieno[2,3-d]pyrido[1,2-a]pyrimidine-7-carboxylic acid ethyl ester], the inhibition at 1 µM is 14.8% in assay [1], 10.7% in assay [2] and -0.3% in assay [3]. The figures for the inhibition at 10 µM in assay [1], in assay [2] and in assay [3] were 24.5%, 15.7% and 13.5%, respectively.

On to `O=c1c2c3c(sc2nc2n1CCCCC2)C(Sc1ccccc1)=C(CO)CC3` [Compound 6a, 1,2,7,8,9,10,11,13-Octahydro-13-oxo-4-(phenylthio)[1]benzothieno[2′,3′:4,5]-pyrimido-[1,2-a]azepine-3-hydroxymethyl], for which the figures for the inhibition at 1 µM in assay [1], in assay [2] and in assay [3] were 51.8%, 11.6% and 45.9%, respectively. For the same compound, the inhibition at 10 µM worked out at 100% in assay [1], 42.5% in assay [2] and 48.9% in assay [3].

As to `O=c1c2c3c(sc2nc2n1CCCC2)CCCC3` [Compound 2e, 1,2,3,4,7,8,9,10-Octahydro-12H-[1]benzothieno[2,3-d]pyrido[1,2-a]pyrimidin-12-one], the inhibition at 1 µM in assay [1] was determined as 15.8%; in assay [2] it was 26%; in assay [3], 46.8%. Also, the inhibition at 10 µM was determined as 20% in assay [1], 28.9% in assay [2] and 38.8% in assay [3].

In the case of `CC(C)(C)C1CCc2c(sc3nc4n(c(=O)c23)CCCCC4)C1` (stereo not drawn) [Compound 29, 3-t-Butyl-2,3,4,7,8,9,10,11-octahydro-[1]benzothieno[2′,3′: 4,5]pyrimido-[1,2-a]azepin-13(1H)-one], the inhibition at 1 µM was -1% in assay [1], 13.1% in assay [2] and 14.9% in assay [3]. Further, the inhibition at 10 µM amounted to 1.3% in assay [1], 10.1% in assay [2] and 25.8% in assay [3].

Take `CCOC(=O)C1CCc2nc3sc4c(c3c(=O)n2CC1)CCCC4=O` (stereo not drawn) [Compound 19, 4,13-Dioxo-1,2,3,4,7,8,9,10,11,13-decahydro-[1]benzothieno[2′,3′: 4,5]pyrimido[1,2-a]azepine-9-carboxylic acid ethyl ester]: the figures for the inhibition at 1 µM in assay [1], in assay [2] and in assay [3] were 10.6%, 0.6% and 13%, respectively. Further, the inhibition at 10 µM is 33.1% in assay [1], 4.4% in assay [2] and 10.5% in assay [3].

As for `O=c1c2c3c(sc2nc2ccccn12)CCCC3` [Compound 25, 1,2,3,4-Tetrahydro-12H-[1]benzothieno[2,3-d]pyrido[1,2-a]pyrimidin-12-one], the inhibition at 1 µM in assay [1] is 6.2%; in assay [2] it was 14%; in assay [3] it was -3.2%. Besides, the inhibition at 10 µM was 8.7% in assay [1], 33.6% in assay [2] and 7.9% in assay [3].

Regarding `O=c1c2c3c(sc2nc2n1CCCCC2)CCC3` [Compound 2b, 1,2,3,6,7,8,9,10-Octahydro-12H-cyclopenta[4′,5′]thieno[2′,3′:4,5]pyrimido[1,2-a]-azepin-12-one], the inhibition at 1 µM in assay [1] is 21%; in assay [2], 15.9%; in assay [3] it was 4.2%. In addition, the inhibition at 10 µM worked out at 15% in assay [1], 21.4% in assay [2] and 9.5% in assay [3].

On to `O=CC1=C([S+]([O-])c2ccccc2)c2sc3nc4n(c(=O)c3c2CC1)CCCCC4` (stereo not drawn) [Compound 30, 1,2,7,8,9,10,11,13-Octahydro-13-oxo-4-(phenylsulfinyl)-[1]benzothieno[2′,3′: 4,5]-pyrimido-[1,2-a]azepine-3-carbaldehyde], for which the inhibition at 1 µM in assay [1] is 23.1%; in assay [2], 12.8%; in assay [3], 11.1%. The inhibition at 10 µM in assay [1] was determined as 49%; in assay [2], 24.8%; in assay [3] it was 31.2%.

As for `CCCSC1=C(C=O)CCc2c1sc1nc3n(c(=O)c21)CCC(C(=O)O)CC3` (stereo not drawn) [Compound 33, 3-Formyl-1,2,7,8,9,10,11,13-octahydro-13-oxo-4-(propylthio)-[1]benzothieno[2′,3′: 4,5] pyrimido[1,2-a]azepine-9-carboxylic acid], in assay [1], the inhibition at 1 µM was determined as 15.3% and the inhibition at 10 µM turned out to be 22.6%. Besides, in assay [2], the inhibition at 1 µM came to 5% and the inhibition at 10 µM was -0.1%.

In the case of `CC1CCc2c(sc3nc4n(c(=O)c23)CCCCC4)C1O` (stereo not drawn) [Compound 32, 4-Hydroxy-3-methyl-2,3,4,7,8,9,10,1-octahydro [1]benzothieno[2′,3′: 4,5]pyrimido-[1,2-a]azepin-13(1H)-one], the inhibition at 1 µM was determined as 19.7% in assay [1] and 14% in assay [2]. Moreover, the values for the inhibition at 10 µM in assay [1] and in assay [2] were 22.5% and -5.1%, respectively.

For `CCCSC1=C(C=O)CCc2c1sc1nc3n(c(=O)c21)CCC(C)CC3` (stereo not drawn) [Compound 34, 9-Methyl-1,2,7,8,9,10,11,13-octahydro-13-oxo-4-(propylthio)-[1]benzothieno[2′,3′: 4,5]-pyrimido[1,2-a]azepine-3-carbaldehyde], in assay [1], the inhibition at 1 µM was found to be 14.9% and the inhibition at 10 µM was found to be 48.1%. Also, in assay [2], the inhibition at 1 µM came to 13% and the inhibition at 10 µM is -0.5%.
